Measured values reported in patent US8841285B2, “Potent immunosuppressive agents, derivatives and uses” (priority 2002, dated 2014).
Like-named read-outs stand apart in the source and are kept apart here.

What was measured:
[1] = tested on: cap-dependent translation; experiment: in vitro translation in RRL, bicistronic reporter, cap-dependent cistron; type: biochemical, rabbit
Protocol: In vitro Translation and Transcription. pSP/(CAG)33/FF/HCV/Ren·pA51 and pKS/FF/EMC/Ren were linearized by BamHI, then purified by phenol:chloroform extraction and ethanol precipitation, and dissolved in water. pSP/(CAG)33/FF/HCV/Ren·A51 and pKS/FF/EMC/Ren were individually transcribed using a large scale RNA production system in the presence of m7Gppp cap analog followed by incubation with DNase as described by the manufacturer. Resulting RNA was purified using a kit as described by the manufacturer. Translation was performed using a rabbit reticulocyte lysate system as per instructions. Briefly, 200 ng of purified RNA was combined in a 20 μl reaction containing 10 μl RRL, 0.2 μl each of minus Met and minus Leu amino acid mixtures, 70 mM KCl, 2 mM DTT, 1× translation buffer, and 10 units of RNasin. Compounds or DMSO were added to a final DMSO concentration of 2%. Reactions were incubated at 30° C. for 1.5 h, then 5 μl of the reaction mixture was assayed for luciferase activity as per instructions of luciferas reporter assay system.

HeLa cells = experiment: cell proliferation assay, HeLa cells; type: cell-based
Protocol: Cell Culture and transient overexpression. HeLa, RKO, and 293T cells were cultured in DMEM (10% FBS), and Hela S3 and MCF-7 cells in RPMI1640 (10% FBS) in a water jacket cell culture incubator with 5% CO2. Transient transfection was performed using kit as described by the manufacturer. Ectopic overexpression of indicated proteins was performed using pSG5-myc-STRAP, pSG5-eIF4AI, and pcDNA-Flag-4B(wt)
Cell Proliferation Assay. 1×10^5 of indicated cells in each well of a 96-well plate were treated with indicated compounds for 24 h followed by addition of 0.11 μCi of [^3H]-thymidine (6.7 Ci/mmol) per well for 6 h, followed by harvesting to GF/C filtermats using a cell harvester. Filtermats were air-dried and scintillation counted. IC50s were determined from quadruplicate data readings and curve-fitting analysis.

eIF4A-eIF4G = target: T1, eIF4A-eIF4G (Homo sapiens, UniProt P60842); experiment: 6XHis-eIF4AI pulldown, eIF4A-eIF4G interaction; type: binding; settings: HeLa lysate; PatA at 100 μM
T1 construct: The entire ORF of human eIF4AI was ligated in-frame into the BamHI and HindIII sites of the pET-28a expression vector; made in house; host or cells: bait from E. coli BL21(DE3); eIF4G endogenous in HeLa lysate
T1 sequence (P60842 whole entry): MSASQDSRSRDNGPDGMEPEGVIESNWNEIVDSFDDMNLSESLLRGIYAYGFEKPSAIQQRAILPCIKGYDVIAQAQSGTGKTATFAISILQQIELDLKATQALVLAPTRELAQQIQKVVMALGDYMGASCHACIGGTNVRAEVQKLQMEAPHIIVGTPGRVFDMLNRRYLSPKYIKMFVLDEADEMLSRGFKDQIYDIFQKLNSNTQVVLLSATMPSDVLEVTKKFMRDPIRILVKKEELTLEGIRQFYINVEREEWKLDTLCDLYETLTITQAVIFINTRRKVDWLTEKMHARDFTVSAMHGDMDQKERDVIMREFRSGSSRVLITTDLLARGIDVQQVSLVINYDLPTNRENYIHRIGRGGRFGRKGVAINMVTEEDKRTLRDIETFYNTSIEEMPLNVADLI
Protocol: 6XHis-eIF4AI pulldown, Co-immunoprecipitation, and m^7GTP-Sepharose pulldown. For 6XHis-eIF4AI pulldowns, HeLa lysates were prepared as described above. Equal aliquots (200 μl) of lysate were incubated with PatA analogs or DMSO and 8.5 μg of 6XHis-eIF4AI overnight at 4° C., followed by addition of Ni-NTA resin for 1 h, then resin was washed with 3 ml buffer, and boiled in SDS-PAGE loading buffer followed by SDS-PAGE and immunoblotting with indicated antibodies. For co-immunoprecipitation, 293T cells with vector control or pcDNA3-Flag-4B lysates were prepared by pipetting in: 20 mM HEPES, pH 7.4, 100 mM KCl, 0.5% Triton-X-100, 20% glycerol, protease inhibitor and 15 μg/ml RNAse A followed by clearing at 13 000 g (10 min). For DMDA-PatA treated samples, lysis and wash buffers also contained 100 nM DMDA-PatA. Anti-Flag antibody was incubated overnight at 4° C., followed by addition of Protein G beads for 4 h. Beads were washed 3× with 500 μl buffer, boiled in SDS-PAGE loading buffer followed by SDS-PAGE and immunoblotting. m^7GTP-Sepharose was performed as described (Yoder-Hill et al., 1993) with modifications. 30 μl RRL was incubated with DMSO or DMDA-PatA at room temperature for 30 min, diluted with buffer supplemented with DMSO or DMDA-PatA (20 nM), then combined with 50 μl beads for 3 h at 4° C. followed by 4 washes with 1 ml buffer. […]

eIF4AI = target: T2, eIF4AI (Homo sapiens, UniProt P60842); experiment: RNA-dependent ATPase activity of recombinant 6XHis-eIF4AI; type: biochemical; settings: saturating poly(U) RNA
T2 construct: The entire ORF of human eIF4AI was ligated in-frame into the BamHI and HindIII sites of the pET-28a expression vector; 6XHis (N); made in house; host or cells: E. coli BL21(DE3)
T2 sequence (P60842 whole entry): as above
Protocol: Recombinant proteins. The entire ORF of human eIF4AI was ligated in-frame into the BamHI and HindIII sites of the pET-28a expression vector after PCR amplification from HeLa cells. Protein was produced in BL21(DE3) E. coli cultured in LB medium by induction with 1 mM IPTG for 6 h at 37° C. Cells were lysed by sonication and protein was purified using Ni-NTA resin as described by the manufacturer. For pET(His6-eIF4B), induction conditions were for 72 h at 16° C. Purification included a 1 ml Heparin column with a linear KCl gradient (50-500 mM).
ATPase and Helicase. ATPase activity was performed as described (Korneeva et al., 2005) with minor modifications. Reactions contained 2.5% DMSO, 6XHis-eIF4AI concentration was 0.56 μM, and reaction time was 10 min at 37° C. in buffer: 20 mM Tris-HCl, pH 7.5, 0.5 mM MgCl2, 100 mM KCl, 2 mM DTT, 0.1% (v/v) Tween 20, 10% (v/v) glycerol, 1 mg/ml BSA, and reactions were supplemented with 3-5 μCi of [γ-^32P]-ATP (6000 Ci/mmol). Saturating poly(U) concentrations were 1239 μM (nucleotides/20). Released phosphate was visualized on 15% native TBE polyacrylamide gels followed by autoradiography of wet gels (30 min exposure). Film was aligned with gels and spots were excised and ^32P levels were quantified by scintillation counting. Km and Vmax were determined by curve fitting. […]

| Structure (SMILES) | inhibition of cap-dependent translation ([1]; 100 nM, HCV IRES bicistronic reporter) | IC50 ([1]; EMCV IRES bicistronic reporter, read-out: IC50, cap-dependent initiation) [nM] | IC50 ([1]; HCV IRES bicistronic reporter, read-out: IC50, cap-dependent translation) [nM] | reversibility of antiproliferative effect (HeLa cells; HeLa cells (FIG. 13)) | sensitivity on overexpression of STRAP (HeLa cells; HeLa cells overexpressing STRAP) | increase in IC50 on overexpression of eIF4AI (HeLa cells; HeLa cells overexpressing eIF4AI vs empty vector) [fold] | effect on eIF4A-eIF4G interaction (eIF4A-eIF4G) | effect on Km ATP (eIF4AI) | effect on kcat (eIF4AI) |
| --- | --- | --- | --- | --- | --- | --- | --- | --- | --- |
| CC(/C=C/C(C)=C/[C@@H]1Cc2nc(cs2)[C@@H](C)C[C@@H](N)CC(=O)O[C@@H](C)C/C(C)=C/C=C\C(=O)O1)=C\CN(C)C [Pat A (1), Pateamine A] | nearly completely inhibited | ~88 | ~20 | irreversible | did not alter sensitivity | 5 | disrupted | – | – |
| CC(/C=C/C(C)=C/[C@@H]1Cc2nc(cs2)CCCCC(=O)O[C@@H](C)C/C(C)=C/C=C\C(=O)O1)=C\CN(C)C [compound 3, desmethyl, desamino-pateamine A] | – | – | – | – | – | – | – | significant decrease | marginally increased |
